These results are taken from publication PMC11588021, “Sequence-defined phosphoestamers for selective inhibition of the KRAS^G12D/RAF1 interaction” (Chemical Science, 2024).

“And” between values parts separate entries of the source, which are not always exact repeats. Equal values may be shown once. “Also recorded” adds a separate entry of the source.

Assay [1] has as its target T1, KRAS^G12D-GMPPnP / RAF1-RBD-GFP interaction (Homo sapiens, UniProt P01116, G12D).
T1 construct: and KRas4B(1-169)[G12D], optimised for expression in E.coli; His6 (N); Avi tag (biotinylated with BirA) (N); TEV site (N); made in house; host or cells: E. coli BL21(DE3) Gold for KRAS; E. coli BL21(DE3) for RAF1-RBD-GFP
The assay can be described thus: KRAS^G12D/RAF1-RBD interaction assay (plate coated with KRAS, RAF1-RBD-GFP fluorescence). The class given is biochemical. On the procedure:
Phosphoestamers O1–O6 were resynthesised on a 1 μmol scale using the DNA synthesiser and the yields were determined by manually cleaving the final DMT protecting group of each molecule and quantifying the DMT cation by UV-visible spectroscopy (ESI Section 2.4 ^†). The achievement of desired length and purity was confirmed by polyacrylamide gel electrophoresis (Fig. 5a). The resynthesised phosphoestamers were purified away from smaller molecules using C18 spin tips. To ensure the assay was viable, a positive control Ch-3 (Fig. 5a) known to disrupt KRAS^G12D interactions[50] was synthesised. […] Any KRAS sites not blocked by the phosphoestamers would interact with the RAF1-GFP and result in a fluorescent signal which would be detected. In this assay, we first established that both KRAS^G12D-GMPPnP and RAF1-RBD-GFP were required to give a fluorescence signal.
To the 96 well plate, 100 µL was added to each well containing 2 µg/mL KRASG12D-GMPPnP or KRASWT-GMPPnP in coating buffer (see buffers, page 3). […] The emission spectrum o f GFP (490 – 560 nm) was measured on the plate reader.
GraphPad Prism (9.5.1) was used to calculate the area under the curve (AUC) of the emission spectra between 490 and 540 nm. IC50 values were calculated on GraphPad Prism, using the non-linea r regression fit (Sigmoidal, 4PL, X is concentration) analysis. […]

Assay [2] concerns KRAS^G12D (inactive GDP-form). Details: method as in PMID 34889605. The settings on record: binds to the inactive GDP-form of the protein; cited from earlier work.
For assay [3], the target named is T2, KRAS^WT-GMPPnP / RAF1-GFP interaction (Homo sapiens, UniProt P01116).
T2 construct: and KRas4B(1-169)[G12D], optimised for expression in E.coli; His6 (N); Avi tag (biotinylated with BirA) (N); TEV site (N); made in house; host or cells: E. coli BL21(DE3) Gold for KRAS; E. coli BL21(DE3) for RAF1-RBD-GFP
The assay can be described thus: KRAS^WT/RAF1-RBD interaction assay (same plate assay). The class given is biochemical. Particulars: 'high' and 'low' concentrations, approximately IC50 ÷ 3 and IC50 × 3. As for the experimental part:
Since four phosphoestamers were determined to have consistent dissociation activity between KRAS^G12D-GMPPnP and RAF1-GFP, we then used the same assay to determine whether these molecules would have any activity against KRAS^WT-GMPPnP or whether they would be selective for the mutant form (Fig. 5e).
To the 96 well plate, 100 µL was added to each well containing 2 µg/mL KRASG12D-GMPPnP or KRASWT-GMPPnP in coating buffer (see buffers, page 3). The plate was shaken on a plate rotator at 300 rpm and left to incubate at 4 °C overnight. After incubation, the KRASG12D/WT solution was removed, and the plate was then washed with 100 µL per well of blocking buffer twice. 100 µL of blocking buffer was then added per well and the plate was incubated at 37 °C for one hour. […] The emission spectrum o f GFP (490 – 560 nm) was measured on the plate reader.
GraphPad Prism (9.5.1) was used to calculate the area under the curve (AUC) of the emission spectra between 490 and 540 nm. IC50 values were calculated on GraphPad Prism, using the non-linea r regression fit (Sigmoidal, 4PL, X is concentration) analysis.
To the well plate, 100 µL was added to each well containing 2 µg/mL of the 4:1 conjugate of KRASG12D-G M PP nP -streptavidin fluorescein in coating buffer. […] The emission spectrum of fluorescein (500 – 600 nm) was measured using the plate reader. […]

The term IC50 denotes the midpoint of a concentration-inhibition curve. In the case of `COc1cccc(-c2ccc(Nc3ccc(CN(C)C)cc3)c(OC)c2F)c1` [Ch-3, reference compound], half-maximal inhibition in assay [1] (positive control, n = 3) (IC50) required 6350 ± 200 nM. On to `C#Cc1c(F)ccc2cc(O)cc(-c3ncc4c(N5CC6CCC(C5)N6)nc(OC[C@@]56CCCN5C[C@H](F)C6)nc4c3F)c12` [MRTX1133], for which the half-maximal inhibitory concentration (IC50) in assay [2] is 5 nM. For the compound “NDI-C12-C12-C12-NDI-BPA [Phosphoestamer O2]”, the “Effect on KRAS^WT-GMPPnP/RAF1-GFP interaction” value in assay [3] was “only O5 caused a decrease in fluorescent signal; also recorded: inactive”. Moreover, in assay [1] (AUC of GFP emission 490-540 nm, three biological repeats (O4 n = 4)), the IC50 is < 100 nM and 70.9 nM.
